Values after ≈ are worked out from the molar mass of the structure shown. Active and inactive are the calls of the source. The calls are words filed in the database; no cut-off is given here.
Experiments:
[1] = In vitro cytotoxic activity against KB cell culture.; type: functional; settings: Homo sapiens, read-out: ED50 (the source's name)
[2] = tested on: L1210; test: In vivo antileukemic activity against L-1210 mouse leukemia cells expressed as % T/C (median survival time of treated/control animals) x 100; In active; type: functional, organism-based
[3] = tested on: Mus musculus; test: In vivo antileukemic activity against L-1210 mouse leukemia cells expressed as % T/C (median survival time of treated/control animals) x 100; type: functional
[4] = tested on: L1210; test: Toxic dose against L1210 mouse leukemia cells was determined; type: toxicity
[5] = tested on: L1210; test: Active dose range for antileukemic activity against L1210 mouse leukemia cells was reported; type: functional
[6] = tested on: Mus musculus; test: In vivo antileukemic activity against L-1210 mouse leukemia cells expressed as […] (log10 of initial tumor cell population minus log10 of tumor cell population at end of treatment); type: functional
[7] = tested on: Mus musculus; test: In vivo antileukemic activity against L-1210 mouse leukemia cells and number of animals cured out of 6; type: functional
[8] = tested on: Mus musculus; test: In vivo antileukemic activity against L-1210 mouse leukemia cells expressed as KE (log10 of initial tumor cell population minus log10 of tumor cell population at end of treatment); type: functional
[9] = tested on: Mus musculus; test: In vivo antileukemic activity against L-1210 mouse leukemia cells given as number of animals cured out of 6; type: functional
[10] = tested on: L1210; test: Active dose range for antileukemic activity against L1210 mouse leukemia cells was reported; dose range may vary from 0.25 to 5.0; type: functional
[11] = tested on: Mus musculus; test: In vivo antileukemic activity against L-1210 mouse leukemia cells expressed as % T/C (median survival time of treated/control animals) x 100 after 2.5 mg/kg administration of dose; type: functional
[12] = tested on: L1210; test: Active dose range for antileukemic activity against L1210 mouse leukemia cells was reported; dose range may vary from 10 to 80; type: functional
[13] = tested on: Mus musculus; test: In vivo antileukemic activity against L-1210 mouse leukemia cells expressed as % T/C (median survival time of treated/control animals) x 100 after 10 mg/kg administration of dose; type: functional
[14] = tested on: Mus musculus; test: (§1) In vivo antileukemic activity against L-1210 mouse leukemia cells expressed as % T/C (median survival time of treated/control animals) x 100; IA means inactive; type: functional, organism-based
[15] = tested on: L1210; test: Active dose range for antileukemic activity against L1210 mouse leukemia cells was reported; dose range may vary from 20 to 80; type: functional
[16] = tested on: Mus musculus; test: In vivo antileukemic activity against L-1210 mouse leukemia cells expressed as % T/C (median survival time of treated/control animals) x 100 after 40 mg/kg administration of dose; type: functional
[17] = tested on: Mus musculus; test: In vivo antileukemic activity against L-1210 mouse leukemia cells expressed as % T/C (median survival time of treated/control animals) x 100 after 80 mg/kg administration of dose; type: functional
[18] = tested on: KB; test: In vitro cytotoxic activity against KB cell culture, expressed as ED50 (concentration resulting in a 50% cell number reduction) was determined; In active; type: functional, cell-based; settings: Homo sapiens
[19] = tested on: KB; test: In vitro cytotoxic activity against KB cell culture, expressed as ED50 (concentration resulting in a 50% cell number reduction) was determined; IA means inactive; type: functional, cell-based; settings: Homo sapiens
[20] = tested on: Mus musculus; test: as §1; type: functional, organism-based; remark: listed apart in the source
[21] = tested on: L1210; test: Active dose range for antileukemic activity against L1210 mouse leukemia cells was reported; dose range may vary from 7.5 to 60; type: functional
[22] = tested on: Mus musculus; test: In vivo antileukemic activity against L-1210 mouse leukemia cells expressed as % T/C (median survival time of treated/control animals) x 100 after 60 mg/kg administration of dose; type: functional
[23] = tested on: L1210; test: Active dose range for antileukemic activity against L1210 mouse leukemia cells was reported; dose range may vary from 10 to 20; type: functional
[24] = tested on: Mus musculus; test: In vivo antileukemic activity against L-1210 mouse leukemia cells expressed as % T/C (median survival time of treated/control animals) x 100 after 2 mg/kg administration of dose; type: functional
[25] = tested on: L1210; test: Active dose range for antileukemic activity against L1210 mouse leukemia cells was reported 2 to 4; type: functional
[26] = tested on: Mus musculus; test: In vivo antileukemic activity against L-1210 mouse leukemia cells expressed as % T/C (median survival time of treated/control animals) x 100 after 3.75 mg/kg administration of dose; type: functional
[27] = tested on: L1210; test: Active dose range for antileukemic activity against L1210 mouse leukemia cells was reported; dose range may vary from 2 to 15.5; type: functional
[28] = tested on: L1210; test: Active dose range for antileukemic activity against L1210 mouse leukemia cells was reported; dose range may vary from 7.5 to 15.5; type: functional
[29] = tested on: Mus musculus; test: In vivo antileukemic activity against L-1210 mouse leukemia cells expressed as % T/C (median survival time of treated/control animals) x 100 after 15.5 mg/kg administration of dose; type: functional

Row | Compound | EC50 [1] | Toxic dose [4] | KE [8] | No. of cures [9] | further results
1 | CCC1(O)C(=O)OCc2c1cc1n(c2=O)Cc2cc3ccc(C=O)cc3nc2-1 (centres undefined) | 5 µg/mL (≈ 13.3 µM) |  |  |  | T/C [2]: inactive
2 | Br.CCC1(O)C(=O)OCc2c1cc1n(c2=O)Cc2cc3cc(O)c(O)cc3nc2-1 (centres undefined) | 3 µg/mL | > 80 mg/kg |  |  | T/C [3]: 173%; Active dose range [5]: 10 mg/kg; T/C [6]: 2.62%; No. of cures [7]: 0
3 | CC[C@@]1(O)C(=O)OCc2c1cc1n(c2=O)Cc2cc3c(N)cccc3nc2-1 [9-AMINOCAMPTOTHECIN] | 0.02 µg/mL (≈ 0.055 µM) | 10 mg/kg | ≥ 5.97 log10 units | 4 | Active dose range [10]: 5 mg/kg; T/C [11]: 361%
4 | CCC1(O)C(=O)OCc2c1cc1n(c2=O)Cc2cc3cc(C)ccc3nc2-1 (centres undefined) | 0.08 µg/mL (≈ 0.221 µM) | > 80 mg/kg | 4.66 log10 units | 0 | Active dose range [12]: 80 mg/kg; T/C [13]: 207%
5 | CCC1(O)C(=O)OCc2c1cc1n(c2=O)Cc2cc3ccc(CN)cc3nc2-1 (centres undefined) [listing 1 of 2 here] |  |  |  |  | T/C [14]: inactive
6 | CCC1(O)C(=O)OCc2c1cc1n(c2=O)Cc2cc3ccc(C)cc3nc2-1 (centres undefined) | 0.9 µg/mL (≈ 2.48 µM) | > 80 mg/kg | -0.68 log10 units | 0 | Active dose range [15]: 80 mg/kg; T/C [16]: 136%
7 | CCC1(O)C(=O)OCc2c1cc1n(c2=O)Cc2cc3ccc([N+](=O)[O-])cc3nc2-1 (centres undefined) | 3 µg/mL (≈ 7.63 µM) | > 80 mg/kg | 0.29 log10 units | 0 | Active dose range [15]: 80 mg/kg; T/C [17]: 147%
8 | CCC1(O)C(=O)OCc2c1cc1n(c2=O)Cc2cc3cc(OC)c(OC)cc3nc2-1 (centres undefined) | 9 µg/mL (≈ 22 µM) |  |  |  | T/C [14]: inactive
9 | CCC1(O)C(=O)OCc2c1cc1n(c2=O)Cc2cc3ccc(/C=N\N=C(N)N)cc3nc2-1 (racemic) |  |  |  |  | ED50 [18]: inactive; T/C [2]: inactive
10 | CCC1(O)C(=O)OCc2c1cc1n(c2=O)Cc2cc3ccc(N(C)C)cc3nc2-1 (centres undefined) |  |  |  |  | ED50 [19]: inactive; T/C [14]: inactive
11 | CCC1(O)C(=O)OCc2c1cc1n(c2=O)Cc2cc3ccc(C(=O)[O-])cc3nc2-1.[Na+] (centres undefined) | 0.3 µg/mL |  |  |  | ED50 [19]: inactive; T/C [14]: inactive; T/C [20]: inactive
12 | CCC1(O)C(=O)OCc2c1cc1n(c2=O)Cc2cc3ccc(CN)cc3nc2-1.Cl (centres undefined) | 4 µg/mL |  |  |  | 
13 | CCC1(O)C(=O)OCc2c1cc1n(c2=O)Cc2cc3ccc(O)cc3nc2-1 (centres undefined) | 0.02 µg/mL (≈ 0.0549 µM) | > 60 mg/kg | ≥ 5.68 log10 units | 3 | Active dose range [21]: 60 mg/kg; T/C [22]: 357%
14 | CCC1(O)C(=O)OCc2c1cc1n(c2=O)Cc2cc3ccc(C#N)cc3nc2-1 (centres undefined) | 0.3 µg/mL (≈ 0.803 µM) | 20 mg/kg | ≥ 5.79 log10 units | 3 | Active dose range [23]: <=20 mg kg-1; T/C [13]: 365%
15 | CCC1(O)C(=O)OCc2c1cc1n(c2=O)Cc2cc3ccc(N)cc3nc2-1 (centres undefined) | 0.02 µg/mL (≈ 0.055 µM) | > 80 mg/kg | 0.29 log10 units | 0 | T/C [16]: 147%; Active dose range [12]: 80 mg/kg
16 | CCC1(O)C(=O)OCc2c1cc1n(c2=O)Cc2cc3cc(O)c(O)cc3nc2-1 (centres undefined) | 1 µg/mL (≈ 2.63 µM) | > 80 mg/kg |  |  | T/C [3]: 153%; Active dose range [5]: 10 mg/kg; T/C [6]: 0.87%; No. of cures [7]: 1
17 | CCC1(O)C(=O)OCc2c1cc1n(c2=O)Cc2cc3ccc(CO)cc3nc2-1 (centres undefined) | 0.3 µg/mL (≈ 0.793 µM) |  |  |  | T/C [14]: inactive
18 | CCC1(O)C(=O)OCc2c1cc1n(c2=O)Cc2cc3cc(Cl)ccc3nc2-1 (centres undefined) | 0.01 µg/mL (≈ 0.0261 µM) | 40 mg/kg | ≥ 5.97 log10 units | 2 | Active dose range [23]: 20 mg/kg; T/C [13]: 280%
19 | CCC1(O)C(=O)OCc2c1cc1n(c2=O)Cc2cc3cc4c(cc3nc2-1)OCO4 (centres undefined) | 0.007 µg/mL (≈ 0.0178 µM) | > 8 mg/kg | ≥ 5.97 log10 units | 2 | T/C [24]: 325%; Active dose range [25]: 4 mg/kg
20 | CCC1(O)C(=O)OCc2c1cc1n(c2=O)Cc2cc3ccc(CN)cc3nc2-1 (centres undefined) [listing 2 of 2 here] | 2 µg/mL (≈ 5.3 µM) |  |  |  | 
21 | CCC1(O)C(=O)OCc2c1cc1n(c2=O)Cc2cc3ccc(C(=O)OC)cc3nc2-1 (centres undefined) | 5 µg/mL (≈ 12.3 µM) |  |  |  | T/C [14]: inactive
22 | CCC1(O)C(=O)OCc2c1cc1n(c2=O)Cc2cc3ccc(C(F)(F)F)cc3nc2-1 (centres undefined) | 0.9 µg/mL (≈ 2.16 µM) |  |  |  | T/C [14]: inactive
23 | CCC1(O)C(=O)OCc2c1cc1n(c2=O)Cc2cc3cc(N)ccc3nc2-1 (centres undefined) | 0.03 µg/mL (≈ 0.0826 µM) | 32 mg/kg | ≥ 5.97 log10 units | 3 | T/C [26]: 365%; Active dose range [27]: 15.5 mg/kg
24 | CCC1(O)C(=O)OCc2c1cc1n(c2=O)Cc2cc3cc([N+](=O)[O-])ccc3nc2-1 (centres undefined) | 0.3 µg/mL (≈ 0.763 µM) | 31 mg/kg | ≥ 5.86 log10 units | 1 | Active dose range [28]: 15.5 mg/kg; T/C [29]: 219%

From ChEMBL document CHEMBL1123875, “Plant antitumor agents. 25. Total synthesis and antileukemic activity of ring A substituted camptothecin analogues. Structure-activity correlations” (J Med Chem, 1987)
